From patent US8993626B2, “Methods of treatment using sterculic acid” (The United States of America, as represented by the …, priority 2010, dated 2015)

What was measured:
[1] = system: bFGF-induced angiogenesis; test: Chick chorioallantonic membrane (CAM) assay; type: in vivo; conditions: for decrease in blood vessels induced by bFGF: bFGF 5 ng/ml, 72 h
Method: Results shown are reported as the reduction in angiogenic stimulation (vessels counted) compared to untreated controls. A, bFGF (5 ng/ml); B, bFGF (5 ng/ml)+5 μl DMSO; C, bFGF (5 ng/ml)+5 μl DMSO containing 1 μg/ml sterculic acid; D, bFGF (5 ng/ml)+5 μl DMSO containing 10 μg/ml sterculic acid.
Fertilized chick embryos, 9-day old, were maintained in a 48 place table top egg incubator at 37° C. in a specific humidity of 60%. After swabbing the egg shell with 70% alcohol, a small window was cut through the egg shell close to the inner shell surface where the prominent blood vessels are located using a hobby grinding wheel (Dremel Emerson Electric Co., Racine, Wis.). A filter disc saturated with bFGF (5 ng/ml) was placed on the CAM. Sterculic acid dissolved in dimethyl sulfoxide (DMSO) at various concentrations was added to the disc daily over 3-day period of incubation. The controls received the same amount of DMSO. After 72 h the disc and surrounding CAM were excised, inverted and examined under a high power dissecting microscope. The result was reported as reduction in angiogenic stimulation (vessels counted) compared to untreated controls.

laser-induced CNV = test: Laser-induced choroidal neovascularization (CNV) rat model; type: in vivo, Brown Norway rats; conditions: day 7
Method: FIG. 2 depicts the results of choroidal neovascularization (CNV) suppression after a single intravitreal injection 48 hours after laser exposure. Box-and-whisker plot representations of volume of CNV lesions from rats treated with a single intravitreal injection as indicated in the x-axis. The y-axis represents neovessel lesion volume expressed in cubic microns. The number of lesions evaluated per condition (n) is depicted in the graph. Values inside of the box represent the central 50% of measurements. The horizontal line inside the box corresponds to the median values, and the vertical lines outside the boxes correspond to variances of measurements. *Highly significant difference compared with oleic acid and PBS.
FIG. 3 depicts the results of daily application of sterculic acid-containing drops to suppress laser-induced CNV. (A) Representative flat-mount projections from confocal microscope Z-series 7 days after laser. The red channel identifies vessels (Isolectin IB-4). Conditions are indicated above each projection. (B) Box-and-whisker plot representations of volume of CNV lesions from rats treated with daily drops as indicated in the x-axis. The y-axis represents neovessel lesion volume expressed in cubic microns. The number of lesions evaluated per condition (n) is depicted in the graph. Values inside of the box represent the central 50% of measurements. […]
FIG. 4 depicts the dose response of CNV suppression after daily application of sterculic acid-containing drops after laser exposure. […] The number of lesions evaluated per condition (n) is depicted in the graph. […]
Laser-induced CNV, flat mount preparations, and lesion evaluations were performed following established methods. […] Neovessels were visualized with confocal microscopy using choroid/RPE flat mounts labelled with Alexa Fluor 568-Isolectin IB4 to identify endothelial cells and neovessel volumes were quantified using VOLOCITY software. […]

ARPE-19 cells = test: qRT-PCR of cytokines in TNF-α treated cells; type: cell-based
Method: FIGS. 17A-17D depict the mRNA expressions of (A) IL-1β, (B) IL-8, (C) IκBα, and (D) GRP78 in response to 2 ng/ml TNF-α, 1 μM sterculic acid, 1 μM stearic acid, or the combinations of TNF-α with either sterculic acid or stearic acid. n=3. Error bars indicate the standard deviations.
Tumor necrosis factor-alpha (TNF-α, Roche Diagnostics, Indianapolis, Ind.) was diluted in PBS to make 10 μg/ml stock solution and stored at −20° C. In order to test the anti-inflammation effect of fatty acids against TNF-α, ARPE-19 cells were treated with 2 ng/ml of TNF-α for 24 hr in serum-free medium with or without 1 μM fatty acids. The mRNA expressions of cytokines were then examined using qRT-PCR. Each treatment was performed three times with quadruplicate measurements in each experiment, in 24-well plates.
The RNA was extracted using RNeasy Mini Kit (Qiagen, Valencia, Calif.). The reverse transcription was performed with reagents and kits from Invitrogen. Quantification of mRNA expression was performed using the Taqman gene expression assays and the following primers (VEGFa, Hs00173626_m1; IL-1β, Hs01555413_m1; IL-6, Hs00174131_m1; IL-8, Hs00174103_m1; IκBα, Hs00153283_m1; GRP78, Hs99999174_m1; CHOP, Hs01090850_m1; NOX2, Hs00166163_m1; NOX4, Hs01558199_m1; SCD, Hs00748952 s1; TNF-α, Hs00174128_m1; TGF-β1, Hs00998133_m1; GAPD, 4352934e). GAPD expression was used as an endogenous standard. All qRT-PCR experiments were measured in triplicates in an ABI 7500 Real-Time PCR Instrument (Applied Biosystems, Foster City, Calif.). The results of each treatment were normalized and presented in percentage relative to the vehicle-only control.

## CCCCCCCCC1=C(CCCCCCCC(=O)O)C1 [sterculic acid, 8-(2-octacyclopropen-1-yl)octanoic acid]
[1]; 1 μg/ml sterculic acid in DMSO daily
  decrease in blood vessels induced by bFGF: Significant decrease
[1]; 10 μg/ml sterculic acid in DMSO daily
  decrease in blood vessels induced by bFGF: more than 3 fold
[1]; compared with the HUVEC IC50
  value observed in the CAM assay: 10 µM
laser-induced CNV; daily drops 0.1 mM after laser, compared to PBS
  CNV suppression: 66%
laser-induced CNV; daily drops 1 mM after laser, compared to oleic acid
  CNV suppression: 45%
laser-induced CNV; single intravitreal injection 1 mM in 1 μL, 48 hours after laser, compared to oleic acid and PBS injection
  CNV suppression: 33%
ARPE-19 cells; 2 ng/ml TNF-α alone or with 1 μM fatty acid, 24 hr, FIG. 17D
  induction of GRP78 mRNA expression: small measurable effect
ARPE-19 cells; 1 μM fatty acid + 2 ng/ml TNF-α, 24 hr
  antagonist effect to the cytokine inductions by TNF-α: did not show any antagonist effect
ARPE-19 cells; 5 μM, data not shown
  antagonist effect to TNF-α at 5 μM: failed to antagonize
